Target: T1, JNK3 (h) (Homo sapiens, UniProt P53779)
T1 construct: purchased Reaction Biology Corp. (Kinase HotSpot service)
Experiment: JNK3 kinase inhibition, Reaction Biology Kinase HotSpot radiometric assay
Assay type: biochemical
Conditions: enzymatic activity; ATP 10 μM
Text: (specific activity approx. 500 cpm/pmol, concentration as required).

T1 sequence (P53779 whole entry): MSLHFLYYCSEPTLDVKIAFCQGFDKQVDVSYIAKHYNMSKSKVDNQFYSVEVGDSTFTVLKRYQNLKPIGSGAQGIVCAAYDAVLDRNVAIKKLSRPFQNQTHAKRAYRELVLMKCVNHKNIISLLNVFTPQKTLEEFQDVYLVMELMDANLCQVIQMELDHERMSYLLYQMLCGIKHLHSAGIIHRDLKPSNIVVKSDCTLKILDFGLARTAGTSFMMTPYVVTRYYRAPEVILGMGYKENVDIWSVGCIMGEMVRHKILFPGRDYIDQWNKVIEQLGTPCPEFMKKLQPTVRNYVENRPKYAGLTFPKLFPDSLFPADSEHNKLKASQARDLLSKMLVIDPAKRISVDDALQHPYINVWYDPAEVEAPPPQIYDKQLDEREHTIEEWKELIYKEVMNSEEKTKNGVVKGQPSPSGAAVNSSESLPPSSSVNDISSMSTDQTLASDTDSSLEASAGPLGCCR

IC50	SMILES
10.4 nM	NC(=O)N1Cc2nc(-c3ccc(Cl)c(Cl)c3)n(-c3ccnc(N[C@H]4CCCN(C(=O)C5CC5)C4)n3)c2C1 [Compound 17a, (S)-1-(2-((1-(Cyclopropanecarbonyl)Piperidin-3-yl)Amino)Pyrimidin-4-yl)-2-(3,4-Dichlorophenyl)-4,6-Dihydropyrrolo[3,4-d]Imidazole-5(1H)-Carboxamide]
18.6 nM	O=C(C1CC1)N1CCC[C@H](Nc2nccc(-n3c(-c4ccc(Cl)c(Cl)c4)nc4c3CN(C(=O)N3CCC(O)CC3)C4)n2)C1 [Compound 22a, (S)-(1-(2-((1-(Cyclopropanecarbonyl)piperidin-3-yl)amino)pyrimidin-4-yl)-2-(3,4-dichlorophenyl)-4,6-dihydropyrrolo[3,4-d]Imidazol-5(1H)-yl)(4-hydroxypiperidin-1-yl)methanone]
225 nM	NC(=O)N1Cc2nc(-c3ccc4c(c3)OCO4)n(-c3ccnc(N[C@H]4CCCN(C(=O)C5CCC5)C4)n3)c2C1 [Compound 20c, (S)-2-(Benzo[d][1,3]Dioxol-5-yl)-1-(2-((1-(Cyclobutanecarbonyl)Piperidin-3-yl)Amino)Pyrimidin-4-yl)-4,6-Dihydropyrrolo[3,4-d]Imidazole-5(1H)-Carboxamide]
